Results as given in US20240373846A1, “Herbicidal Compositions” (SYNGENTA CROP PROTECTION AG, priority 2021, published 2024).

Tests used:
Test in all cases: Post-emergence efficacy
Type in all cases: in vivo
[1] = test system: Digitaria insularis (TRCIN); settings: 100=total damage to plant, 0=no damage
Excerpt: (§1) When active ingredients are combined, the activity to be expected (E) for any given active ingredient combination obeys the so-called Colby Formula and can be calculated as follows (Colby, S. R., Calculating synergistic and antagonistic responses of herbicide combination, Weeds, Vol. 15, pages 20-22; 1967): • ppm=milligrams of active ingredient (a.i.) per litre • X=% action by first active ingredient using p ppm of the active ingredient • Y=% action by second active ingredient sing q ppm of the active ingredient.
(§2) According to Colby, the expected action of active ingredients A+B using p+q ppm of active ingredient is represented by the following formula: […]
(§3) If the action actually observed (O) is greater than the expected action E then the action of the combination is super-additive, i.e. there is a synergistic effect. In mathematical terms, synergism corresponds to a positive value for the difference of (O−E). In the case of purely complementary addition of activities (expected activity), said difference (O−E) is zero. A negative value of said difference (O−E) signals a loss of activity compared to the expected activity.
(§4) The efficacy of various compositions of the present invention were tested against plants including the following species: Amaranthus retroflexus (AMARE), Echinochloa crus-gali (ECHCG), Lolium multiflorum (LOLMU), Setaria faberi (SETFA), and Digitaria insularis (TRCIN). The compositions are applied post-emergence, and the tests evaluated at certain days-after-application (DAA) as indicated. The tests were evaluated (100=total damage to plant; 0=no damage to plant), and the results are shown below in tables B1 to B11 below.

[2] = test system: Amaranthus retroflexus (AMARE); settings: 100=total damage to plant, 0=no damage
Excerpt: as §1, §2, §3, §4

[3] = test system: Echinochloa crus-gali (ECHCG); settings: 100=total damage to plant, 0=no damage
Excerpt: as §1, §2, §3, §4

Setaria faberi (SETFA) = settings: Table B8, 13 DAA, 100=total damage to plant, 0=no damage
Excerpt: as §1, §2, §3, §4

[4] = test system: Lolium multiflorum (LOLMU); settings: Table B11, 15DAA, 100=total damage to plant, 0=no damage
Excerpt: as §1, §2, §3, §4

Compound: COc1ccc(-n2c(=O)c(C(=O)C3C(=O)CCCC3=O)nc3c(Cl)cccc32)cc1 [Formula B1d, fenquinotrione]
- Observed ([1]; Table B2, 16DAA, 500 g/ha): 35
- Observed ([1]; Table B2, 16DAA, 1000 g/ha): 43

Compound: CS(=O)(=O)c1ccc(C(=O)C2C(=O)CCCC2=O)c([N+](=O)[O-])c1 [Formula B1f, mesotrione]
- Observed ([2]; Table B3, 13 DAA, 3.75 g/ha): 18

Compound: CCOCN(C(=O)CCl)c1c(C)cccc1CC [Formula B2a, acetochlor]
- Observed ([3]; Table B4, 15DAA, 4000 g/ha): 50

Compound: Cn1nc(C(F)(F)F)c(CS(=O)(=O)C2=NOC(C)(C)C2)c1OC(F)F [Formula B2d, pyroxasulfone]
- Observed ([3]; Table B5, 15DAA, 125 g/ha): 38
- Observed ([3]; Table B5, 15DAA, 250 g/ha): 35

Compound: CCOC(=O)c1ccccc1S(=O)(=O)NC(=O)Nc1nc(Cl)cc(OC)n1 [Formula B3c, chlorimuron-ethyl]
- Observed ([2]; Table B6, 13DAA, 1.88 g/ha): 88
- Observed ([2]; Table B6, 13DAA, 7.5 g/ha): 83

Compound: CCc1cnc(C2=NC(C)(C(C)C)C(=O)N2)c(C(=O)O)c1 (stereo not shown) [Formula B3j, imazethapyr]
- Observed ([1]; Table B7, 16DAA, 8 g/ha): 30
- Observed ([1]; Table B7, 16DAA, 15 g/ha): 53

Compound: COc1cc(OC)nc(NC(=O)NS(=O)(=O)c2ncccc2C(=O)N(C)C)n1 [Formula B3m, nicosulfuron]
- Observed (Setaria faberi (SETFA); 0.94 g/ha): 0
- Observed (Setaria faberi (SETFA); 1.88 g/ha): 0
- Observed (Setaria faberi (SETFA); 3.75 g/ha): 0

Compound: CCNc1nc(Cl)nc(NC(C)C)n1 [Formula B4c, atrazine]
- Observed ([3]; Table B9, 20DAA, 500 g/ha): 60

Compound: CSc1nnc(C(C)(C)C)c(=O)n1N [Formula B4g, metribuzin]
- Observed ([2]; Table B10, 13 DAA, 7.5 g/ha): 0

Compound: FC(F)c1cc(-c2c(Cl)cccc2Oc2ncc(Cl)cn2)on1 [Formula B5d, rimisoxafen]
- Observed ([4]; 30 g/ha): 18

Compound: CC#Cc1ccc(C2=C(OC(=O)OC)C3CCC(C3)C2=O)c(OC)c1 (stereo not shown) [Formula Ic]
- Observed (Setaria faberi (SETFA); 0.47 g/ha): 3
- Observed (Setaria faberi (SETFA); 0.94 g/ha): 0
- Observed (Setaria faberi (SETFA); 1.88 g/ha): 0
- Observed ([4]; 12.5 g/ha): 60
- Observed ([2]; Table B1, 13 DAA, 0.47 g/ha): 0
- Observed ([2]; Table B1, 13 DAA, 0.94 g/ha): 0
- Observed ([2]; Table B3, 13 DAA, 0.47 g/ha): 10
- Observed ([2]; Table B3, 13 DAA, 0.94 g/ha): 0
- Observed ([2]; Table B6, 13DAA, 1.88 g/ha): 7.5
- Observed ([2]; Table B10, 13 DAA, 0.47 g/ha): 10
- Observed ([2]; Table B10, 13 DAA, 0.94 g/ha): 0
- Observed ([2]; Table B10, 13 DAA, 1.88 g/ha): 0
- Observed ([1]; Table B7, 16DAA, 3.125 g/ha): 15

Compound: bicyclopyrone [Formula B1b]
- Observed ([2]; Table B1, 13 DAA, 0.94 g/ha): 23
- Observed ([2]; Table B1, 13 DAA, 1.88 g/ha): 45
